1 substance from patent publication US8268961B2, “Antibacterial peptides and analogues thereof” (Universita Degli Studi di Siena, priority 2004, dated 2012) can be followed below.

In data set [1] the test system is Staphylococcus aureus ATCC 25923. The data set is classed as cell-based. The text has this:
(§1) MIC is defined as the lowest concentration, in an antibiotic dilution range, that inhibits visible bacterial growth. The importance of MIC sensitivity test is based on the principle that in vitro sensitivity provides a predictive indication of the in vivo efficacy of the antibiotic therapy. Values are expressed as molar concentration and compared to MIC values obtained with commercially available antibiotics such as amikacin, ceftriaxone and levofloxacin (Table 3).
(§2) Reference strains (Escherichia coli ATCC 25922, Pseudomonas aeruginosa ATCC 27853, Staphylococus aureus ATCC 25923 and Chryseobacterium meningosepticum CCUG 4310) and several recent clinical isolates (including multidrug-resistant ones) of various species (Table 2) were used for conventional susceptibility testing experiments. Minimum Inhibitory Concentration (MIC) was determined by a standard microdilution assay as recommended by the National Commitee for Clinical Laboratory Standards (NCCLS) using cation-supplemented Mueller-Hinton (MH) broth (Oxoid Ltd. Basingstoke, UK) and a bacterial inoculum of 5×10^4 CFU per well, in a final volume of 100 μl. Results were recorded by visual inspection after 24 h of incubation at 37° C.

Data set [2] has as its system Escherichia coli W99FI0077. The data set is classed as cell-based. The note with it: W99FI0077.
Excerpt: as §1, §2

Data set [3] deals with Pseudomonas aeruginosa 891. The data set is classed as cell-based. As to conditions: 891.
Excerpt: as §1, §2

Data set [4] deals with Pseudomonas aeruginosa ATCC27853. The data set is classed as cell-based. As to conditions: ATCC27853.
Excerpt: as §1, §2

The test system of data set [5] is Klebsiella pneumoniae W99FI0057. The data set is classed as cell-based. The note with it: W99FI0057.
Excerpt: as §1, §2

For data set [6], the system named is Pseudomonas aeruginosa 885149. The class given is cell-based. The note with it: 885149.
Excerpt: as §1, §2

Data set [7] relates to murine macrophage cells J774 A.1. Kind of data set: Cytotoxicity test by MTT. The data set is classed as cell-based, mouse. On the procedure: The cytotoxicity of antibacterial MAP peptides was evaluated on different eukaryotic cell lines by a colorimetric assay (MTT). This assay measures the cells' ability to convert a soluble tetrazolium salt into an insoluble precipitate: formazan. The cytotoxicity of M1 was evaluated on murine macrophagic cells (J774 A.1), murine myeloma cells (SPO) and Chinese hamster ovary epithelium cells (CHO K1). As shown FIG. 4, even at high concentrations (1 mg/ml) M1 cytotoxicity on CHO K1 cells and on SPO cells is low (percent survival is 80-90%).
For cytotoxicity tests, different cell lines were used: murine myeloma cells SPO, hamster ovary epithelium cells CHO K 1, murine macrophage cells J774 A.1 and human keratinocytes HaCaT. The cells were plated in medium in RPMI 1640 (SPO and CHO K 1) and DMEM (J774 A.1 and HaCaT) with antibiotics and bovine foetal serum at 10%, in 96-well plates at the concentration of 6×10^4 (SPO, CHO K1 and J774 A.1) and 3×10^4 (HaCaT). Peptides, previously filtered with a 0.2 μm filter disk (Whatman), were added at various concentrations to the different cell lines and left in incubation over night at 37° C. Cell viability was determined adding the MTT tetrazolium salt at the concentration of 0.5 mg/ml and incubating for 90 min. The cells were solubilised with a solution at pH 4.5 containing SDS 10% and dimethylformamide 45% and read at the dual wavelength of 595/650 nm with a plate reader.

Another data set relates to E. coli ATCC 25922. The experiment in a line: Minimal bactericidal concentration (MBC). The data set is classed as cell-based. On the procedure: as §2
(§3) The MBC was determined as recommended by the National Committee for Clinical Laboratory Standards (NCCLS) on strains of E. coli ATCC 25922 and P. aeruginosa ATCC 27853.

In another data set the test system is P. aeruginosa ATCC 27853. Kind of data set: Minimal bactericidal concentration (MBC). The class given is cell-based. On the procedure:
as §2, §3

Data set [8] has as its system Pichia pastoris yeast strain X33. Kind of data set: Effect on Pichia pastoris yeast colonies. The data set is classed as cell-based. As to the method: To a volume of 50 μl of culture of Pichia pastoris grown 24 hour at 30° C. in YPD (Yeast Extract/Peptone/Dextrose) medium, 50 μl of MAP peptides (2 mg/ml) were added and left in incubation 150 min at 37° C. Subsequently, 50 μl of each incubation were plated on YPD solid medium and it was allowed to grow for 48 hours at 30° C. The number of colonies grown was compared with a control, where the yeast was not treated with the MAP.

The test system of data set [9] is Staphylococus aureus MIU-68A. The class given is cell-based, Staphylococcus aureus. As to conditions: Staphylococus aureus MIU-68A, meticillin-susceptible.
Excerpt: as §1, §2

Data set [10] in a line: Stability to plasmatic protease (HPLC). The class given is in vitro ADME, human. As to the method: Since the use of peptides as therapeutic agents is severely limited by their in vivo half-life, the stability to human serum protease of the linear peptide L1 and of the MAP peptides M1, M4, M5 and M6 was evaluated. The peptides were incubated at the concentration of 10 mM with plasma and with human serum for 2 and 24 hours; the samples were subsequently analysed in HPLC on column C18 (see materials and methods) to evaluate the presence of linear and MAP peptide not digested by the protease.
The various peptides in MAP form and the linear peptide (L1) were dissolved in H2O at the concentration of 10 mM and incubated with 10 μl of plasma and human serum for 2 and 24 hours at 37° C. To each sample were added 150 μl of methanol to block the proteolytic reaction; each sample was then centrifuged at 13,000 rpm for 2 min and to the supernatant were added 0.75 ml of 0.1% trifluoroacetic acid. The samples were analysed in reverse phase HPLC on a Vydac C18 semi-preparative column using a 30 min gradient of buffer B from 20% to 95% (buffer A: 0.1% trifluoroacetic acid/water; buffer B: 0.1% trifluoroacetic acid/methanol), to evaluate the presence of linear and MAP peptide after the proteolytic treatment.

The test system of another data set is E. coli strain TG1. Kind of data set: Test of antibacterial activity (colony growth inhibition) on E. coli strain TG1. The data set is classed as cell-based. As to the method:
The antimicrobic activity of the peptides in linear form (L1, L4, L5, L6) and in MAP form (M1, M4, M5, M6) was assayed on the TG1 strain of E. coli. The peptides were incubated at various concentrations (2-1-0.5-0.25-0.12 mg/ml) with cells of E. coli (OD600=0.2) for about 1 hour at 37° C. Subsequently, the cells were plated on agar at dilution such to allow counting of individual colonies. The antimicrobic activity of the synthesised peptide L 1 and M1 is shown FIG. 1 and is compared to a non correlated MAP peptide (MNC) used as negative control.
In one example, the tetrabranched MAP peptides with the amino acid sequence: QAKIRVRLSA [SEQ ID NO: 2], KIRVRLSA [SEQ ID NO: 3], QKKIRVRLSA [SEQ ID NO: 4] are used individually in a bacterial colony growth inhibition test. The test is conducted by incubating different concentrations of MAP peptides with E. coli (strain TG1) and plating bacterial cells on agar at a dilution such to allow for individual colonies counting. The following day, the number of colonies grown after treatment with the three MAP peptides is compared.
Antimicrobic tests were conducted incubating for 75 min at 37° C., 25 μL of E. coli at the OD600 of 0.2 with 25 μl of MAP peptide dissolved in PBS at the various concentrations. The different incubations were further diluted 1:1000 in 2×TY medium and 100 μl were plated on solid 2×TY medium. The plates were left overnight at 30° C. and the individual grown colonies were counted and compared with a control, not treated with MAP peptide.

Read-outs that look alike come from different tables or passages of the source. Positions of bridges follow the written chain, without caps; N, C: chain ends. Chains are numbered I, II in the order given. No end group written: not given here. Where only a bound is given, the exact number is not on record here.

Turning to “I: QAKIRVRLSAKKA-OH / II: QAKIRVRLSAK / III: QAKIRVRLSA / IV: QAKIRVRLSA (amide I:11-IV:C, I:12-II:C, II:11-III:C) [M4]”, the “MIC (Molarity)” value was 1.3e-05 M in [1] (ATCC 25923); greater than 1.2e-05 M in data set [1] (Staphylococcus aureus ATCC 25923, reference strain, listed as M32 = M4); ~10^−5 M in [1] (Staphylococcus aureus ATCC 25923, reference strain, listed as QAKIRVRLSA); 3.2 µM in data set [2]; 13 µM in [3]; 6.4 µM in [4]. The “MIC (Molarity)” value in [5] was 13 µM; in data set [6], 13 µM; in data set [9], greater than 26 µM. Further, in data set [7], the “Concentration at and over which a drop in cell viability was evident (MTT)” value is no less than 250 µg/mL. For the same substance, the “Vitality of J774 A.1 cells as the concentration of MAP peptides increases (MTT)” value in data set [7] is given as “decreases”. Besides, the “MBC (minimal concentration able to kill 99.9% of the inoculum) compared with MIC” value was “equal to the calculated values of MIC” against E. coli ATCC 25922, “equal to the corresponding MIC values” with E. coli ATCC 25922 (listed as QAKIRVRLSA), “equal to the calculated values of MIC” in the data set with P. aeruginosa ATCC 27853 and “equal to the corresponding MIC values” against P. aeruginosa ATCC 27853 (listed as QAKIRVRLSA). Also, the “Number of yeast colonies vs negative control” value in data set [8] is on record as “did not differ from the negative control”. In data set [10], the “Resistance to plasmatic protease: Plasma 2 h” value was “+”. Also, in [10], the “Resistance to plasmatic protease: Plasma 24 h” value is “+”. Moreover, the “Concentration down to which TG1 E. coli colony growth is prevented” value with E. coli strain TG1 (E. coli TG1, MAP form) was “less effective”. Besides, the “Antibacterial activity on E. coli TG1 colony growth” value in the data set with E. coli strain TG1 (E. coli TG1, colony counting vs control without peptide) was “good antibacterial activity”.
